Data from US4027005A, “Diagnostic agents” (New England Nuclear Corporation, priority 1974, dated 1977).
Where two headings read alike, the source gives them in different places.

Tests used:
[1] = Acute toxicity in mice, intravenous; assay type: in vivo
[2] = Sub-acute toxicity in mice; assay type: in vivo; conditions: mice, 800, 400 and 80 mg/kg per day for 15 days
[3] = Sub-acute toxicity in dogs; assay type: in vivo; conditions: 19 mg/kg per day for 14 days
[4] = Comparative one hour rat organ distribution and organ uptake contrast ratios; assay type: in vivo; conditions: i.v.; for Kidney/G.I. organ uptake contrast ratio / Kidney/liver organ uptake contrast ratio / Kidney/blood organ uptake contrast ratio: activity per gram; for Kidney/blood organ uptake contrast ratio: 60 min; for Blood, organ distribution / G.I., organ distribution / Kidney, organ distribution / Liver, organ distribution: decay corrected, average of at least two animals
Description: Each of the foregoing renal scanning agents is aseptically intravenously injected (0.25 ml containing about 3-5 mCi) into adult rats. One hour later the rats are sacrificed, and the blood collected, weighed and counted. The organs of interest, e.g. the kidney, the liver, and the gastrointestinal tract, are individually weighed and the radioactivity contained therein counted. The amount of radioactivity injected is determined by counting the radioactivity in the syringe before and after injection. The organ distribution values are reported as the percent of the activity injected which is observed in the organ, corrected for the radioactive decay of technetium. The organ uptake contrast ratios are determined by determining the relative activity contained per gram of the organs compared.

[5] = test system: infarcted myocardial tissue; test: Infarction tests: accumulation in infarcted myocardial tissue; assay type: in vivo, rat; conditions: for ratio B: activity per gram of infarcted tissue to activity per gram in the blood: 60 min
Description: In each case a myocardial infarct is produced in adult rats by surgery. In Example 9, doses of about 3-5 mCi each of the glucoheptonate and tetracycline agents respectively are injected three hours after infarct was induced. The animals are sacrificed one hour after injection and the heart removed. The infarcted tissue, which is visibly distinguishable from normal myocardial tissue, was excised, weighed and counted. The normal myocardial tissue was also weighed and its activity counted and the results are reported as the ratio of the activity per gram of the infarcted tissue to the activity per gram of the normal tissue (A), and the ratio of the activity per gram of the infarcted tissue to activity per gram in the blood (B). Example 10 reports similar results, the difference being that in that example the radionuclides were injected into the live rats eighteen hours after the infarct was induced, rather than three hours.

[6] = Urinary excretion in humans; conditions: within the first hour after injection, 60 min
[7] = Distribution data in rats of the glucoheptonate agent; conditions: within one hour post injection
[8] = cited from earlier work
[9] = Example 9: rat, injected three hours after infarct, sacrificed one hour after injection
[10] = Example 10: rat, injected eighteen hours after infarct

Molecule	Kidney/G.I. organ uptake contrast ratio [4]	Kidney/liver organ uptake contrast ratio [4]	Kidney/blood organ uptake contrast ratio [4]	Blood, organ distribution [4]	G.I., organ distribution [4]	Kidney, organ distribution [4]	Liver, organ distribution [4]	also measured
stannous glucoheptonate								acute toxicity level (LD50) [1]: about 1500 mg/kg; sub-acute toxicity [2]: no ill effects; sub-acute toxicity [3]: no untoward effects
technetium-99m-stannous-glucoheptonate [Example 1]	44	115	105	1.1% of the activity inject	5.0% of the activity inject	18% of the activity inject	0.7% of the activity inject	ratio A: activity per gram of infarcted tissue to activity per gram of normal tissue [5, 9]: 10.3; ratio B: activity per gram of infarcted tissue to activity per gram in the blood [5, 9]: 4.5; ratio A: activity per gram of infarcted tissue to activity per gram of normal tissue [5, 10]: 6.7; ratio B: activity per gram of infarcted tissue to activity per gram in the blood [5, 10]: 3.2; preferential accumulation in infarcted tissue (in words) ([5]; Examples 9 and 10): more effective in preferentially accumulating in infarcted, rather than normal, tissue than the tetracycline infarct agent; injected dose excreted in the urine [6]: about 25%; total blood activity [7]: less than 2%
O=C(O)[C@H](O)[C@@H](O)[C@H](O)[C@H](O)CO [Example 5]	55	50	40	2.3% of the activity inject	4.8% of the activity inject	16% of the activity inject	1.4% of the activity inject	
technetium-99m-stannous-tetracycline [Tetracycline complex, reference compound]								ratio A: activity per gram of infarcted tissue to activity per gram of normal tissue [5, 9]: 5.9; ratio A: activity per gram of infarcted tissue to activity per gram of normal tissue [5, 10]: 3.7
O=C(O)Cn1cc([131I])c(=O)c([131I])c1.OCCNCCO [131 I-iodopyracet]								accumulation, retention or elimination of prior agents (in words) ([8]; in vivo): simultaneous accumulation in surrounding tissue, especially the liver
O=C(O)CNC(=O)c1ccccc1[131I] [131 I-iodohippuran]								accumulation, retention or elimination of prior agents (in words) ([8]; prior art): predominantly eliminated through active secretion by tubular cells
O=C(O)[C@H](O)[C@@H](O)[C@H](O[C@@H]1O[C@H](CO)[C@H](O)[C@H](O)[C@H]1O)[C@H](O)CO [Example 2]	57	102	82	1.8% of the activity inject	6.2% of the activity inject	23% of the activity inject	1.3% of the activity inject	
technetium-99m-stannous-DTPA [Example 7]	65	77	32	1.0% of the activity inject	1.1% of the activity inject	5.0% of the activity inject	0.3% of the activity inject	Kidney/blood organ uptake contrast ratio ([4]; listed as DTPA): 22
